Series [1] has as its system MCF-7 (HER2 1+). Description: Anti-proliferation assay (CCK-8) of linker-drug combinations, drugs and cleaved products. The series is classed as cell-based. As for the experimental part: (§1) Additionally, a series of experiments were conducted, including anti-proliferation assays for linker-drug combinations (i.e. the compounds in the present disclosure), the drugs thereof, and the cleaved products thereof after cleavage by the Cathepsin B enzyme in cells. These assays were performed using HER2-expressing cell lines. MCF-7 and SK-BR-3 cell lines were seeded at a density of 1.5×10^3 to 1×10^4 cells/well in 90 μL of the corresponding culture medium, and cultured at 37° C. in a CO2 incubator (Forma/ThermoFisher (370) or BINDER (CB130)) with a range of dilutions (0-1000 nM) of the compounds in the present disclosure, the drugs thereof, and the cleaved products thereof. Cell density for each sample was recorded by measuring the absorbance of Cell Counting Kit-8 (CCK-8) at 450 nm. Data analysis was performed using GraphPad Prism 8.0.1, and the best-fit four-parameter dose-response curve was selected. Half Maximal Inhibitory Concentration (IC50) values were determined via nonlinear regression; consistency between batches was assessed using One-way ANOVA. The relevant experimental results are detailed in Table 4. […] Such reduced toxicity of the linker-drug combinations (i.e, the compounds in the present disclosure) offers significant advantages in moiety-drug conjugate applications, including better biocompatibility, enhanced therapeutic efficacy, and greater dosing flexibility.

The test system of series [2] is SK-BR-3 (HER2 3+). The series is described as above. In kind it is cell-based. The following applies: 0-1000 nM. How it is done: as §1
The nature of series [3]: Plasma stability, released drug by LC-MS/MS. In kind it is in vitro ADME. The conditions noted are these: for free drug percentage: 13 days; for drug release trend: over a 13-day period. An excerpt:
To further advance the research, a set of the compounds in the present disclosure, FL-F21N-L111-P204 and FL-F21N-L106-P204, each containing single-arm and dual-arm respectively, was selected for plasma stability testing in both humans and rats. These were then compared in detail with commercially available Deruxtecan (Dxd) and VC-PAB-MMAE to evaluate their stability and safety in blood.
These calculations were based on standard drugs (e.g., Eribulin, MMAE, Dxd) and they were accurately measured using liquid chromatography-tandem mass spectrometry (LC-MS/MS). […] This trend provides an in-depth understanding of the drug release dynamics.
These experimental results provide crucial data supporting the efficacy and safety of the compounds in the present disclosure.

A short description of series [4]: Water solubility testing (dissolved with minimal DMSO, precipitated by addition of water). In kind it is physicochemical. The conditions noted are these: precipitated by addition of water to DMSO solution. As for the experimental part: Briefly, the moiety-compound conjugates was dissolved with minimal DMSO and precipitated by the addition of water. […] However, Entry 5 and Entry 4 are conjugates with two-arm, with no PEG linker or two PEG4 linker, respectively, which were precipitated in 19.5% and 30.8% Water/DMSO. Thus, the results of water solubility of the conjugates are consistent with the inventors' hypothesis.

The test system of series [5] is MCF-7 (HER2 1+). Nature of the series: Cell toxicity testing of moiety-drug conjugates (CCK-8). The series is classed as cell-based. How it is done: (§2) The experiment involved optimizing seeding densities (1.5×10^3 to 1.5×10^4 cells/well) for each cell line (SK-BR-3, MCF-7, MDA-MB-231, MDA-MB-436) in 90 IL, of culture medium per well in a 96-well plate for 2-hour incubation. Next, 10 μL of a series of diluted ADC solutions (0-500 nM) were added to each well. The concentration of each ADC solution and measurements at four time points (24, 48, 72, and 96 hours) were conducted in triplicate. […] Data analysis was performed with GraphPad Prism 8.0.1, employing a four-parameter logistic curve-fit program.

Series [6] deals with SK-BR-3 (HER2 3+). The series is described as above. In kind it is cell-based. The following applies: 0-500 nM. As for the experimental part: as §2
In the next series the test system is MDA-MB-231 (HER2−). The series is described as above. In kind it is cell-based. The conditions noted are these: 0-500 nM. As for the experimental part: as §2
A further series deals with MDA-MB-436 (HER2−). The series is described as above. In kind it is cell-based. The following applies: 0-500 nM. How it is done:
as §2

pIC50: −log10 of the molar value. Numbered stars: 1 amine (or outer) side, 2 acyl side, 3 side chain; on linkers, the order of the positions; unused ones are H or OH. Square brackets hold non-standard residues; d marks the D form. Peptide text beside a SMILES is read from it. * marks the point of attachment. Dolaproine = CO[C@@H]([C@@H]1CCCN1)[C@@H](C)C(=O)O; Dil = CC[C@H](C)[C@H](NC)[C@@H](CC(=O)O)OC; PABC = O=C(OCc1ccc(N[*:1])cc1)[*:2]; X1 = C[C@@H](N*)[C@@H](O)c1ccccc1; Cit = NC(=O)NCCC[C@H](N)C(=O)O; NMeV = CN[C@H](C(=O)O)C(C)C Where only a bound is given, the exact number is not on record here.

Regarding “Deruxtecan [L155-P209 (Deruxtecan), reference compound]”, the pIC50 in the series on MCF-7 (HER2 1+) [1] (0-1000 nM) was 6.29; in the series with SK-BR-3 (HER2 3+) [2], 6.36. The free drug percentage is recorded as 5.19% in series [3] (human plasma) and 0.70% in series [3] (rat plasma).
`C=C1C[C@@H]2CC[C@@]34CC5O[C@H]6[C@@H](O3)[C@H]3O[C@H](CC[C@@H]3O[C@H]6C5O4)CC(=O)C[C@H]3C(C[C@H]4OC(CC[C@@H]1O2)C[C@@H](C)C4=C)O[C@H](C[C@H](O)CNC(=O)OCCOCCOCCOCCOCCOCCOCCOCCOCCOCCOCCOCCNC(=O)OCc1ccc(NC(=O)[C@H](CCCNC(N)=O)NC(=O)[C@@H](NC(=O)CCCCCN2C(=O)C=CC2=O)C(C)C)cc1)[C@@H]3OC` (stereo partly drawn) [FL-F21N-L162-P204, Mal-Val-Cit-PEG12-Eribulin]: the “Precipitation in % Water/DMSO” value in series [4] is listed as 31.5%.
As for `CC[C@H](C)[C@@H]([C@@H](CC(=O)N1CCC[C@H]1[C@H](OC)[C@@H](C)C(=O)N[C@H](C)[C@@H](O)c1ccccc1)OC)N(C)C(=O)[C@@H](NC(=O)[C@H](C(C)C)N(C)C(=O)OCc1ccc(NC(=O)[C@H](CCCNC(N)=O)NC(=O)[C@@H](N)C(C)C)cc1)C(C)C` [VC-PAB-MMAE, reference compound] (H-V[Cit][PABC][NMeV]V[Dil][Dolaproine]-X1), the free drug percentage came out at 0.56% in series [3] (human plasma) and 5.03% in series [3] (rat plasma).
Regarding “Mal-Val-Cit-PAB-(Eribulin)2 [FL-F21N-L107-P204]”, the “Precipitation in % Water/DMSO” value in series [4] is recorded as 19.5%. The pIC50 is 7.85 with MCF-7 (HER2 1+) [1] (0-1000 nM) and 8.03 in the series with SK-BR-3 (HER2 3+) [2].
With “Trastuzumab-Mal-Val-Cit-PAB-(Eribulin)2 [A701-L107-P204-D08]”, the results for the pIC50 in the series with MCF-7 (HER2 1+) [5] (0-500 nM) and in the series with SK-BR-3 (HER2 3+) [6] were 10.64 and 10.76, respectively.
Take “Trastuzumab-Mal-Val-Cit-PAB-PEG4-Eribulin [A701-L111-P204-D08]”: the pIC50 is below 6.60 with MDA-MB-231 (HER2−), 10.35 in the series with MCF-7 (HER2 1+) [5] (0-500 nM), 7.48 in the series with MDA-MB-436 (HER2−) and 10.92 in the series on SK-BR-3 (HER2 3+) [6].
On to `C=C1C[C@@H]2CC[C@@]34CC5O[C@H]6C(O3)[C@H]3O[C@H](CC[C@@H]3O[C@H]6[C@H]5O4)CC(=O)C[C@@H]3[C@@H](OC)[C@@H](C[C@H](O)CNC(=O)OCCOCCOCCOCCNC(=O)OCc4ccc(NC(=O)[C@H](CCCNC(N)=O)NC(=O)[C@@H](NC(=O)CCCCCN5C(=O)C=CC5=O)C(C)C)cc4)O[C@H]3CC3O[C@@H](CCC1O2)C[C@@H](C)C3=C` [FL-F21N-L111-P204, Mal-Val-Cit-PAB-PEG4-Eribulin], for which, in series [4], the “Precipitation in % Water/DMSO” value was found to be 24.5%. Further, the pIC50 with MCF-7 (HER2 1+) [1] (Homo sapiens, MCF7, 0-1000 nM) was 7.34; with SK-BR-3 (HER2 3+) [2] (Homo sapiens) it was 7.51. Further, the drug release trend result in series [3] (human plasma) and in series [3] (rat plasma) was “stable drug release trends” each time.
As for `C=C1C[C@@H]2CC[C@@]34CC5O[C@H]6[C@@H](O3)[C@H]3O[C@H](CC[C@@H]3O[C@H]6C5O4)CC(=O)C[C@H]3C(C[C@H]4OC(CC[C@@H]1O2)C[C@@H](C)C4=C)O[C@H](C[C@H](O)CNC(=O)OCCOCCOCCOCCOCCOCCOCCOCCOCCOCCOCCOCCOCCOCCOCCOCCOCCOCCOCCOCCOCCOCCOCCOCCNC(=O)OCc1ccc(NC(=O)[C@H](CCCNC(N)=O)NC(=O)[C@@H](NC(=O)CCCCCN2C(=O)C=CC2=O)C(C)C)cc1)[C@@H]3OC` (stereo partly drawn) [FL-F21N-L163-P204, Mal-Val-Cit-PEG24-Eribulin], the “Precipitation in % Water/DMSO” value in series [4] was 38.9%.
Consider `C=C1C[C@@H]2CC[C@@]34C[C@H]5O[C@H]6[C@@H](O3)[C@H]3O[C@H](CC[C@@H]3O[C@H]6[C@H]5O4)CC(=O)C[C@@H]3[C@@H](OC)[C@@H](C[C@H](O)CN)O[C@H]3C[C@H]3O[C@@H](CC[C@@H]1O2)C[C@@H](C)C3=C` [P204, Eribulin, reference compound], for which the pIC50 in the series on MDA-MB-231 (HER2−) (Homo sapiens) is 8.68; in the series on MCF-7 (HER2 1+) [5] (Homo sapiens, MCF7, 0-500 nM), 9.47; in the series with MDA-MB-436 (HER2−) (Homo sapiens), 8.89; in the series on SK-BR-3 (HER2 3+) [6] (Homo sapiens) it was 9.61; in the series on MCF-7 (HER2 1+) [1] (Homo sapiens, MCF7, 0-1000 nM), 9.47; in the series with SK-BR-3 (HER2 3+) [2] (Homo sapiens), 9.61.
For “Trastuzumab-Mal-Val-Cit-PAB-(PEG4-Eribulin)2 [A701-L106-P204-D08]”, the pIC50 in the series on MDA-MB-231 (HER2−) is 7.12; with MCF-7 (HER2 1+) [5] (0-500 nM) it was 10.64; in the series with MDA-MB-436 (HER2−), 7.84; with SK-BR-3 (HER2 3+) [6] it was 10.67.
The corresponding values for “Trastuzumab-Mal-Val-Cit-PAB-PEG4-Eribulin [A701-L111-P204-D04]” are 6.83, 8.42, below 6.60 and 10.92.
Consider “Mal-Val-Cit-PAB-(PEG4-Eribulin)2 [FL-F21N-L106-P204]”, for which the “Precipitation in % Water/DMSO” value in series [4] came to 30.8%. Also, the pIC50 in the series with MCF-7 (HER2 1+) [1] (0-1000 nM) is 7.58; in the series on SK-BR-3 (HER2 3+) [2] it was 7.89. Further, the free drug percentage amounted to 2.74% in series [3] (human plasma) and 3.50% in series [3] (rat plasma). Also, the drug release trend result in series [3] (human plasma) and in series [3] (rat plasma) was “stable drug release trends” each time.
Take Dxd [P209, reference compound]: the pIC50 with MDA-MB-231 (HER2−) was 6.87; in the series with MCF-7 (HER2 1+) [5] (0-500 nM), 8.02; with MDA-MB-436 (HER2−), 8.29; in the series on SK-BR-3 (HER2 3+) [6] it was 8.26; in the series with MCF-7 (HER2 1+) [1] (0-1000 nM) it was 8.02; in the series on SK-BR-3 (HER2 3+) [2] it was 8.26.
